Test results: US9695155B2, “Herbicidal substituted pyrimidinyloxy benzene compounds” (E. I. DU PONT DE NEMOURS AND COMPANY, priority 2013, dated 2017)

Experiments:
wheat = test: Test A preemergence; type: in vivo, Triticum aestivum
Outline: (§1)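 Visual 0–100 rating (100 = complete control) taken about 10 d post-treatment relative to untreated checks. Preemergence: directed soil spray on sown loam/sand pots. Postemergence: seedlings 2–10 cm, 1–2 leaf. Non-phytotoxic solvent formulation with surfactant.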

giant foxtail [1] = test: Test A postemergence; type: in vivo, Setaria faberii; conditions: Setaria faberi, post-emergence, 240 h, 0 to 100 scale where 0 is no effect and 100 is complete control
Outline: as §1

pigweed [2] = test: Test A postemergence; type: in vivo, Amaranthus retroflexus; conditions: Amaranthus retroflexus, post-emergence, 0 to 100 scale where 0 is no effect and 100 is complete control
Outline: as §1

corn [3] = test: Test A postemergence; type: in vivo, Zea mays; conditions: Zea mays, post-emergence, 240 h, 0 to 100 scale where 0 is no effect and 100 is complete control
Outline: as §1

galium = test: Test C preemergence; type: in vivo, Galium aparine; conditions: Galium, pre-emergence
Outline: (§2)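 Preemergence: seeds sown in a loam soil–sand blend and sprayed with test chemical in a non-phytotoxic solvent mixture containing surfactant. Postemergence: plants at 2 to 18 cm (1- to 4-leaf stage) in peat-based medium, treated with the same formulation. Greenhouse 13 to 15 days, then visual rating 0 (no effect) to 100 (complete control).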

corn [4] = test: Test C preemergence; type: in vivo, Zea mays; conditions: Zea mays, pre-emergence
Outline: as §2

lambsquarters [5] = test: Test C preemergence; type: in vivo, Chenopodium album; conditions: Chenopodium album, pre-emergence
Outline: as §2

morningglory [6] = test: Test C preemergence; type: in vivo, Ipomoea coccinea; conditions: Ipomoea, pre-emergence
Outline: as §2

ragweed [7] = test: Test C preemergence; type: in vivo, Ambrosia elatior; conditions: Ambrosia artemisiifolia, pre-emergence
Outline: as §2

velvetleaf = test: Test C preemergence; type: in vivo, Abutilon theophrasti; conditions: Abutilon theophrasti, pre-emergence
Outline: as §2

large (Lg) crabgrass = test: Test C postemergence; type: in vivo, Digitaria sanguinalis; conditions: Digitaria sanguinalis, post-emergence
Outline: as §2

giant foxtail [8] = test: Test C postemergence; type: in vivo, Setaria faberii; conditions: Setaria faberi, post-emergence
Outline: as §2

lambsquarters [9] = test: Test C postemergence; type: in vivo, Chenopodium album
Outline: as §2

morningglory [10] = test: Test C postemergence; type: in vivo, Ipomoea coccinea
Outline: as §2

pigweed [11] = test: Test C postemergence; type: in vivo, Amaranthus retroflexus
Outline: as §2

ragweed [12] = test: Test C postemergence; type: in vivo, Ambrosia elatior
Outline: as §2

soybean = test: Test C postemergence; type: in vivo, Glycine max
Outline: as §2

waterhemp = test: Test C postemergence; type: in vivo, Amaranthus rudis
Outline: as §2

[13] = 31 g ai/ha, postemergence, visual rating, scale 0 to 100 (0 no effect, 100 complete control), 13 to 15 days

FC(F)c1cccc(Oc2ncc(Cl)cn2)c1-n1cc(Br)cn1 [Compound 194, 2-[2-(4-bromo-1H-pyrazol-1-yl)-3-(difluoromethyl)phenoxy]-5-chloropyrimidine]
Wheat plant response rating (0 to 100 scale) (wheat; 125 g ai/ha): 20
plant injury at 500 g/ha (wheat; Triticum aestivum, pre-emergence, 240 h, 500 g ai/ha, 0 to 100 scale where 0 is no effect and 100 is complete control, read-out: Wheat plant response rating): 30%
pest or weed control at 125 g/ha (giant foxtail [1]; 125 g ai/ha, read-out: Foxtail, Giant plant response rating): 90%
pest or weed control at 500 g/ha (giant foxtail [1]; 500 g ai/ha, read-out: Plant response rating, Foxtail, Giant): 100%
pest or weed control at 500 g/ha (pigweed [2]; 500 g ai/ha, read-out: Plant response rating, Pigweed): 100%
pest or weed control at 125 g/ha (pigweed [2]; 240 h, 125 g ai/ha, read-out: Pigweed plant response rating): 100%
plant injury at 125 g/ha (corn [3]; 125 g ai/ha, read-out: Corn plant response rating): 30%
Corn plant response rating (crop injury, 0 = no effect, 100 = complete kill) at 500 g/ha (corn [3]; 500 g ai/ha): 60%
pest or weed control at 125 g/ha (galium; 125 g ai/ha, preemergence, scale 0 (no effect) to 100 (complete control), read-out: Galium plant response rating): 90%
pest or weed control at 250 g/ha (galium; 250 g ai/ha, preemergence, scale 0 (no effect) to 100 (complete control), read-out: Galium plant response rating): 100%
pest or weed control at 62 g/ha (galium; Preemergence, 62 g ai/ha, scale 0 to 100, 0 no effect, 100 complete control, read-out: Plant response rating, Galium): 90%
plant injury at 125 g/ha (corn [4]; 125 g ai/ha, preemergence, scale 0 (no effect) to 100 (complete control), read-out: Corn plant response rating): 15%
plant injury at 250 g/ha (corn [4]; 250 g ai/ha, preemergence, scale 0 (no effect) to 100 (complete control), read-out: Corn plant response rating): 25%
Corn plant response rating (crop injury, 0 = no effect, 100 = complete kill) at 62 g/ha (corn [4]; Preemergence, 62 g ai/ha, scale 0 to 100, 0 no effect, 100 complete control): 0%
pest or weed control at 125 g/ha (lambsquarters [5]; 125 g ai/ha, preemergence, scale 0 (no effect) to 100 (complete control), read-out: Lambsquarters plant response rating): 100%
pest or weed control at 250 g/ha (lambsquarters [5]; 250 g ai/ha, preemergence, scale 0 (no effect) to 100 (complete control), read-out: Lambsquarters plant response rating): 100%
pest or weed control at 62 g/ha (lambsquarters [5]; Preemergence, 62 g ai/ha, scale 0 to 100, 0 no effect, 100 complete control, read-out: Plant response rating, Lambsquarters): 100%
pest or weed control at 125 g/ha (morningglory [6]; 125 g ai/ha, preemergence, scale 0 (no effect) to 100 (complete control), read-out: Morningglory plant response rating): 95%
pest or weed control at 250 g/ha (morningglory [6]; 250 g ai/ha, preemergence, scale 0 (no effect) to 100 (complete control), read-out: Morningglory plant response rating): 98%
pest or weed control at 62 g/ha (morningglory [6]; Preemergence, 62 g ai/ha, scale 0 to 100, 0 no effect, 100 complete control, read-out: Plant response rating, Morningglory): 0%
pest or weed control at 125 g/ha (ragweed [7]; 125 g ai/ha, preemergence, scale 0 (no effect) to 100 (complete control), read-out: Ragweed plant response rating): 20%
pest or weed control at 250 g/ha (ragweed [7]; 250 g ai/ha, preemergence, scale 0 (no effect) to 100 (complete control), read-out: Ragweed plant response rating): 75%
pest or weed control at 62 g/ha (ragweed [7]; Preemergence, 62 g ai/ha, scale 0 to 100, 0 no effect, 100 complete control, read-out: Plant response rating, Ragweed): 10%
pest or weed control at 125 g/ha (velvetleaf; 125 g ai/ha, preemergence, scale 0 (no effect) to 100 (complete control), read-out: Velvetleaf plant response rating): 100%
pest or weed control at 250 g/ha (velvetleaf; 250 g ai/ha, preemergence, scale 0 (no effect) to 100 (complete control), read-out: Velvetleaf plant response rating): 100%
pest or weed control at 62 g/ha (velvetleaf; Preemergence, 62 g ai/ha, scale 0 to 100, 0 no effect, 100 complete control, read-out: Plant response rating, Velvetleaf): 75%
pest or weed control at 31 g/ha (large (Lg) crabgrass; 31 g ai/ha, postemergence, visual rating, scale 0 to 100 (0 no effect, 100 complete control), 13 to 15 days, read-out: Crabgrass, Large plant response rating): 10%
pest or weed control at 125 g/ha (large (Lg) crabgrass; 125 g ai/ha, postemergence, visual rating, scale 0 to 100 (0 no effect, 100 complete control), read-out: Plant response rating, Crabgrass, Large): 10%
pest or weed control at 250 g/ha (large (Lg) crabgrass; 250 g ai/ha, postemergence, read-out: Plant response rating (0 to 100), Crabgrass, Large): 50%
pest or weed control at 62 g/ha (large (Lg) crabgrass; Postemergence, 62 g ai/ha, scale 0 to 100 (0 no effect, 100 complete control), 13 to 15 days, read-out: Plant response rating, Crabgrass, Large): 10%
pest or weed control at 31 g/ha (giant foxtail [8]; 31 g ai/ha, postemergence, visual rating, scale 0 to 100 (0 no effect, 100 complete control), 13 to 15 days, read-out: Foxtail, Giant plant response rating): 10%
pest or weed control at 125 g/ha (giant foxtail [8]; 125 g ai/ha, postemergence, visual rating, scale 0 to 100 (0 no effect, 100 complete control), read-out: Plant response rating, Foxtail, Giant): 15%
pest or weed control at 250 g/ha (giant foxtail [8]; 250 g ai/ha, postemergence, read-out: Plant response rating (0 to 100), Foxtail, Giant): 15%
pest or weed control at 62 g/ha (giant foxtail [8]; Postemergence, 62 g ai/ha, scale 0 to 100 (0 no effect, 100 complete control), 13 to 15 days, read-out: Plant response rating, Foxtail, Giant): 10%
Lambsquarters plant response rating (lambsquarters [9]; [13]): 60
pest or weed control at 125 g/ha (lambsquarters [9]; Chenopodium album, post-emergence, 125 g ai/ha, postemergence, visual rating, scale 0 to 100 (0 no effect, 100 complete control), read-out: Plant response rating, Lambsquarters): 90%
pest or weed control at 250 g/ha (lambsquarters [9]; Chenopodium album, post-emergence, 250 g ai/ha, postemergence, read-out: Plant response rating (0 to 100), Lambsquarters): 98%
pest or weed control at 62 g/ha (lambsquarters [9]; Chenopodium album, post-emergence, Postemergence, 62 g ai/ha, scale 0 to 100 (0 no effect, 100 complete control), 13 to 15 days, read-out: Plant response rating, Lambsquarters): 80%
Morningglory plant response rating (morningglory [10]; [13]): 50
pest or weed control at 125 g/ha (morningglory [10]; Ipomoea, post-emergence, 125 g ai/ha, postemergence, visual rating, scale 0 to 100 (0 no effect, 100 complete control), read-out: Plant response rating, Morningglory): 80%
pest or weed control at 250 g/ha (morningglory [10]; Ipomoea, post-emergence, 250 g ai/ha, postemergence, read-out: Plant response rating (0 to 100), Morningglory): 95%
pest or weed control at 62 g/ha (morningglory [10]; Ipomoea, post-emergence, Postemergence, 62 g ai/ha, scale 0 to 100 (0 no effect, 100 complete control), 13 to 15 days, read-out: Plant response rating, Morningglory): 80%
Pigweed plant response rating (pigweed [11]; [13]): 75
pest or weed control at 125 g/ha (pigweed [11]; Amaranthus retroflexus, post-emergence, 125 g ai/ha, postemergence, visual rating, scale 0 to 100 (0 no effect, 100 complete control), read-out: Plant response rating, Pigweed): 90%
pest or weed control at 250 g/ha (pigweed [11]; Amaranthus retroflexus, post-emergence, 250 g ai/ha, postemergence, read-out: Plant response rating (0 to 100), Pigweed): 95%
pest or weed control at 62 g/ha (pigweed [11]; Amaranthus retroflexus, post-emergence, Postemergence, 62 g ai/ha, scale 0 to 100 (0 no effect, 100 complete control), 13 to 15 days, read-out: Plant response rating, Pigweed): 75%
Ragweed plant response rating (ragweed [12]; [13]): 15
pest or weed control at 125 g/ha (ragweed [12]; Ambrosia artemisiifolia, post-emergence, 125 g ai/ha, postemergence, visual rating, scale 0 to 100 (0 no effect, 100 complete control), read-out: Plant response rating, Ragweed): 50%
pest or weed control at 250 g/ha (ragweed [12]; Ambrosia artemisiifolia, post-emergence, 250 g ai/ha, postemergence, read-out: Plant response rating (0 to 100), Ragweed): 50%
pest or weed control at 62 g/ha (ragweed [12]; Ambrosia artemisiifolia, post-emergence, Postemergence, 62 g ai/ha, scale 0 to 100 (0 no effect, 100 complete control), 13 to 15 days, read-out: Plant response rating, Ragweed): 25%
Soybean plant response rating (soybean; [13]): 30
Soybean plant response rating (crop injury, 0-100 scale) at 125 g/ha (soybean; Glycine max, post-emergence, 125 g ai/ha, postemergence, visual rating, scale 0 to 100 (0 no effect, 100 complete control), read-out: Plant response rating, Soybean): 75%
Soybean plant response rating (crop injury, 0-100 scale) at 250 g/ha (soybean; Glycine max, post-emergence, 250 g ai/ha, postemergence): 85%
Soybean plant response rating (crop injury, 0-100 scale) at 62 g/ha (soybean; Glycine max, post-emergence, Postemergence, 62 g ai/ha, scale 0 to 100 (0 no effect, 100 complete control), 13 to 15 days): 50%
Waterhemp plant response rating (waterhemp; [13]): 80
pest or weed control at 125 g/ha (waterhemp; Amaranthus tuberculatus, post-emergence, 125 g ai/ha, postemergence, visual rating, scale 0 to 100 (0 no effect, 100 complete control), read-out: Plant response rating, Waterhemp): 85%
pest or weed control at 250 g/ha (waterhemp; Amaranthus tuberculatus, post-emergence, 250 g ai/ha, postemergence, read-out: Plant response rating (0 to 100), Waterhemp): 90%
pest or weed control at 62 g/ha (waterhemp; Amaranthus tuberculatus, post-emergence, Postemergence, 62 g ai/ha, scale 0 to 100 (0 no effect, 100 complete control), 13 to 15 days, read-out: Plant response rating, Waterhemp): 80%
